Test results taken from patent publication US20260365647A1, “AKT1 MODULATORS” (Alterome Therapeutics, Inc., priority 2022, published 2026).
pIC50: −log10 of the molar value.

The molecules below were run against T1, AKT1-E17K (Homo sapiens, UniProt P31749, E17K) (assay: NanoBRET Target Engagement (TE) Assay).
T1 construct: host or cells: HEK-293 (ATCC CRL-1573)
T1 sequence (P31749 whole entry E17K): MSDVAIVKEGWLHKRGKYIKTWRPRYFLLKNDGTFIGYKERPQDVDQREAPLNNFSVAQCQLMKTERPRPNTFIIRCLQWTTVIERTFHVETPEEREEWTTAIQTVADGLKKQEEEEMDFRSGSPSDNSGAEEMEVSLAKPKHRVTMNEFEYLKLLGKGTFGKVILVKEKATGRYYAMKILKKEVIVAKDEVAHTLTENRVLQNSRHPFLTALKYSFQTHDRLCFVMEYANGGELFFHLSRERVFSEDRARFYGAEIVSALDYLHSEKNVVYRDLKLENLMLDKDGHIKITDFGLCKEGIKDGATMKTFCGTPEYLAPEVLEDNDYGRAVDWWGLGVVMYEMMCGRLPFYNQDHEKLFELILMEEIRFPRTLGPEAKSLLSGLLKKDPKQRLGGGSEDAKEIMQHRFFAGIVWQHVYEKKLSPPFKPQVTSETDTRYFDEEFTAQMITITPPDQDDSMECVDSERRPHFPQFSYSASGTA
Format: cell-based
How it was run: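 Live cells transiently expressing NanoLuc-AKT1 E17K fusion, incubated 2 h with tracer and compound before substrate plus extracellular NanoLuc inhibitor were added. BRET read at 450/600 nm; EC50 from variable-slope sigmoidal fit of tracer displacement.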
`Nc1ncccc1-c1nc2ccc(-c3ccccc3)nc2n1-c1ccc(CN2CC3(CCN(C(=O)c4ccc(C=O)c(O)c4)CC3)C2)cc1` [Example 96, 4-(2-(4-(2-(2-Aminopyridin-3-yl)-5-phenyl-3H-imidazo[4,5-b]pyridin-3-yl)benzyl)-2,7-diazaspiro[3.5]nonane-7-carbonyl)-2-hydroxybenzaldehyde] was tested, and the pIC50 was 6.22 to 7.22.
In the case of `Nc1ncccc1-c1nc2ccc(-c3ccccc3)nc2n1-c1ccc(CN2CCC3(CC2)CCN(c2ccc(C=O)c(O)c2)C3)cc1` [Example 76, 4-(8-(4-(2-(2-Aminopyridin-3-yl)-5-phenyl-3H-imidazo[4,5-b]pyridin-3-yl)benzyl)-2,8-diazaspiro[4.5]decan-2-yl)-2-hydroxybenzaldehyde], the pIC50 was 6.22 to 7.22.
With `Nc1ncccc1-c1nc2ccc(-c3ccccc3)nc2n1-c1ccc(CN2CCC3(CC2)CCN(C(=O)c2ccc(O)c(C=O)c2)C3)cc1` [Example 74, 5-(8-(4-(2-(2-aminopyridin-3-yl)-5-phenyl-3H-imidazo[4,5-b]pyridin-3-yl)benzyl)-2,8-diazaspiro[4.5]decane-2-carbonyl)-2-hydroxybenzaldehyde] the pIC50 was 7.22 to 7.82.
Work on `Nc1ncccc1-c1nc2ccc(-c3ccccc3)nc2n1-c1ccc(CN2C[C@H]3CN(C(=O)c4ccc(O)c(C=O)c4)C[C@@H]3C2)cc1` [Example 135, 5-((3aS,6aS)-5-(4-(2-(2-Aminopyridin-3-yl)-5-phenyl-3H-imidazo[4,5-b]pyridin-3-yl)benzyl)octahydropyrrolo[3,4-c]pyrrole-2-carbonyl)-2-hydroxybenzaldehyde] yielded a pIC50 of 7.22 to 7.82.
Molecule `Nc1ncccc1-c1nc2ccc(-c3ccccc3)nc2n1-c1ccc(CN2CCN(c3cc(O)c(C=O)c(F)c3)CC2)cc1` [Example 24, 4-(4-(4-(2-(2-Aminopyridin-3-yl)-5-phenyl-3H-imidazo[4,5-b]pyridin-3-yl)benzyl)piperazin-1-yl)-2-fluoro-6-hydroxybenzaldehyde] has a pIC50 of 6.22 to 7.22.
`Nc1ncccc1-c1nc2ccc(-c3ccccc3)nc2n1-c1ccc(CN2CC[C@@H](NC(=O)c3ccc(O)c(C=O)c3)C2)cc1` [Example 59, (R)—N-(1-(4-(2-(2-aminopyridin-3-yl)-5-phenyl-3H-imidazo[4,5-b]pyridin-3-yl)benzyl)pyrrolidin-3-yl)-3-formyl-4-hydroxybenzamide] was tested, and the pIC50 was over 7.82.
For `Nc1ncccc1-c1nc2ccc(-c3ccc(Cl)cc3)nc2n1-c1ccc(CN2CCN(c3ccc(C=O)c(O)c3)CC2)cc1` [Example 146, 4-(4-(4-(2-(2-aminopyridin-3-yl)-5-(4-chlorophenyl)-3H-imidazo[4,5-b]pyridin-3-yl)benzyl)piperazin-1-yl)-2-hydroxybenzaldehyde], the pIC50 was under 6.22.
In the case of `Nc1ncccc1-c1nc2ccc(-c3ccccc3)nc2n1-c1ccc(CN2CCC3(CCN(c4ccc(C=O)c(O)c4)C3)C2)cc1` (stereo not drawn) [Example 82, 4-(7-(4-(2-(2-Aminopyridin-3-yl)-5-phenyl-3H-imidazo[4,5-b]pyridin-3-yl)benzyl)-2,7-diazaspiro[4.4]nonan-2-yl)-2-hydroxybenzaldehyde], the pIC50 was 6.22 to 7.22.
Molecule `C=Cc1cc(C=O)c(O)cc1N1CCN(Cc2ccc(-n3c(-c4cccnc4N)nc4ccc(-c5ccccc5)nc43)cc2)CC1` [Example 28, 4-(4-(4-(2-(2-Aminopyridin-3-yl)-5-phenyl-3H-imidazo[4,5-b]pyridin-3-yl)benzyl)piperazin-1-yl)-2-hydroxy-5-vinylbenzaldehyde] has a pIC50 of 6.22 to 7.22.
`Nc1ncccc1-c1nc2ccc(-c3ccccc3)nc2n1-c1ccc(CN2CC3(CCN(c4ccc(C=O)c(O)c4)CC3)C2)cc1` [Example 97, 4-(2-(4-(2-(2-Aminopyridin-3-yl)-5-phenyl-3H-imidazo[4,5-b]pyridin-3-yl)benzyl)-2,7-diazaspiro[3.5]nonan-7-yl)-2-hydroxybenzaldehyde] was tested, and the pIC50 was 6.22 to 7.22.
Molecule `C[C@H]1CN(Cc2ccc(-n3c(-c4cccnc4N)nc4ccc(-c5ccccc5)nc43)cc2)CCN1C(=O)c1ccc(O)c(C=O)c1` [Example 105, (S)-5-(4-(4-(2-(2-Aminopyridin-3-yl)-5-phenyl-3H-imidazo[4,5-b]pyridin-3-yl)benzyl)-2-methylpiperazine-1-carbonyl)-2-hydroxybenzaldehyde] has a pIC50 of 6.22 to 7.22.
Molecule `Nc1ncccc1-c1nc2ccc(-c3ccccc3)nc2n1-c1ccc(CN2CCN(c3cc(O)c(C=O)cc3F)CC2)cc1` [Example 25, 4-(4-(4-(2-(2-Aminopyridin-3-yl)-5-phenyl-3H-imidazo[4,5-b]pyridin-3-yl)benzyl)piperazin-1-yl)-5-fluoro-2-hydroxybenzaldehyde] has a pIC50 of 7.22 to 7.82.
Work on `Nc1ncccc1-c1nc2ccc(N3CCOCC3)nc2n1-c1ccc(CN2CCC(NC(=O)c3ccc(O)c(C=O)c3)CC2)cc1` [Example 52, N-(1-(4-(2-(2-Aminopyridin-3-yl)-5-morpholino-3H-imidazo[4,5-b]pyridin-3-yl)benzyl)piperidin-4-yl)-3-formyl-4-hydroxybenzamide] yielded a pIC50 of 7.22 to 7.82.
`Nc1ncccc1-c1nc2ccc(-c3ccccc3)nc2n1-c1ccc(CN2CCCN(c3ccc(C=O)c(O)c3)CC2)cc1` [Example 120, 4-(4-(4-(2-(2-Aminopyridin-3-yl)-5-phenyl-3H-imidazo[4,5-b]pyridin-3-yl)benzyl)-1,4-diazepan-1-yl)-2-hydroxybenzaldehyde] was tested, and the pIC50 was 7.22 to 7.82.
`Nc1ncccc1-c1nc2ccc(-c3ccccc3)nc2n1-c1ccc(CN2CCC3(CCN(C(=O)c4ccc(C=O)c(O)c4)CC3)C2)cc1` [Example 90, 4-(2-(4-(2-(2-Aminopyridin-3-yl)-5-phenyl-3H-imidazo[4,5-b]pyridin-3-yl)benzyl)-2,8-diazaspiro[4.5]decane-8-carbonyl)-2-hydroxybenzaldehyde] gave a pIC50 of 6.22 to 7.22.
`C[C@H]1CN(Cc2ccc(-n3c(-c4cccnc4N)nc4ccc(-c5ccccc5)nc43)cc2)CCN1C(=O)c1ccc(C=O)c(O)c1` [Example 106, (S)-4-(4-(4-(2-(2-Aminopyridin-3-yl)-5-phenyl-3H-imidazo[4,5-b]pyridin-3-yl)benzyl)-2-methylpiperazine-1-carbonyl)-2-hydroxybenzaldehyde] gave a pIC50 of under 6.22.
For `Nc1ncccc1-c1nc2ccc(-c3ccccc3)nc2n1-c1ccc(CN2C[C@@H]3C[C@H]2CN3c2ccc(C=O)c(O)c2)cc1` [Example 123, 4-((1S,4S)-5-(4-(2-(2-Aminopyridin-3-yl)-5-phenyl-3H-imidazo[4,5-b]pyridin-3-yl)benzyl)-2,5-diazabicyclo[2.2.1]heptan-2-yl)-2-hydroxybenzaldehyde], the pIC50 was 6.22 to 7.22.
`Nc1ncccc1-c1nc2ccc(-c3ccccc3)nc2n1-c1ccc(CN2CC3(CCN(C(=O)c4ccc(C=O)c(O)c4)C3)C2)cc1` [Example 93, 4-(2-(4-(2-(2-Aminopyridin-3-yl)-5-phenyl-3H-imidazo[4,5-b]pyridin-3-yl)benzyl)-2,6-diazaspiro[3.4]octane-6-carbonyl)-2-hydroxybenzaldehyde] showed a pIC50 of 6.22 to 7.22.
With `Nc1ncccc1-c1nc2ccc(-c3ccccc3)nc2n1-c1ccc(CN2CCN(c3ccc(C=O)c(O)c3)CC2)cc1` [Example 9, 4-(4-(4-(2-(2-Aminopyridin-3-yl)-5-phenyl-3H-imidazo[4,5-b]pyridin-3-yl)benzyl)piperazin-1-yl)-2-hydroxybenzaldehyde] the pIC50 was 7.22 to 7.82.
Work on `CN(Cc1ccc(-n2c(-c3cccnc3N)nc3ccc(-c4ccccc4)nc32)cc1)c1ccc(C=O)c(O)c1` [Example 17, 4-((4-(2-(2-Aminopyridin-3-yl)-5-phenyl-3H-imidazo[4,5-b]pyridin-3-yl)benzyl)(methyl)amino)-2-hydroxybenzaldehyde] yielded a pIC50 of 6.22 to 7.22.
For `N#Cc1cccc(-c2ccc3nc(-c4cccnc4N)n(-c4ccc(CN5CCN(C(=O)c6ccc(C=O)c(O)c6)CC5)cc4)c3n2)c1` [Example 35, 3-(2-(2-Aminopyridin-3-yl)-3-(4-((4-(4-formyl-3-hydroxybenzoyl)piperazin-1-yl)methyl)phenyl)-3H-imidazo[4,5-b]pyridin-5-yl)benzonitrile], the pIC50 was 6.22 to 7.22.
In the case of `Nc1ncccc1-c1nc2ccc(-c3ccccc3)nc2n1-c1ccc(CN2CC[C@]3(CCN(c4ccc(C=O)c(O)c4)C3)C2)cc1` [Example 103, (S)-4-(7-(4-(2-(2-Aminopyridin-3-yl)-5-phenyl-3H-imidazo[4,5-b]pyridin-3-yl)benzyl)-2,7-diazaspiro[4.4]nonan-2-yl)-2-hydroxybenzaldehyde], the pIC50 was 6.22 to 7.22.
Work on `Nc1ncccc1-c1nc2ccc(-c3ccccc3)nc2n1-c1ccc(CN2CC3(C2)CN(C(=O)c2ccc(O)c(C=O)c2)C3)cc1` [Example 62, 5-(6-(4-(2-(2-Aminopyridin-3-yl)-5-phenyl-3H-imidazo[4,5-b]pyridin-3-yl)benzyl)-2,6-diazaspiro[3.3]heptane-2-carbonyl)-2-hydroxybenzaldehyde] yielded a pIC50 of over 7.82.
In the case of `Nc1ncccc1-c1nc2ccc(-c3ccccc3)nc2n1-c1ccc(COc2ccc(O)c(C=O)c2)cc1` [Example 139, 5-((4-(2-(2-Aminopyridin-3-yl)-5-phenyl-3H-imidazo[4,5-b]pyridin-3-yl)benzyl)oxy)-2-hydroxybenzaldehyde], the pIC50 was under 6.22.
Molecule `Nc1ncccc1-c1nc2ccc(-c3ccccc3)nc2n1-c1ccc(CN2C3CCC2CN(C(=O)c2ccc(C=O)c(O)c2)C3)cc1` [Example 113, 4-(8-(4-(2-(2-Aminopyridin-3-yl)-5-phenyl-3H-imidazo[4,5-b]pyridin-3-yl)benzyl)-3,8-diazabicyclo[3.2.1]octane-3-carbonyl)-2-hydroxybenzaldehyde] has a pIC50 of 6.22 to 7.22.
In the case of `Nc1ncccc1-c1nc2ccc(-c3ccccc3)nc2n1-c1ccc(CN2CC3(CC(NC(=O)c4ccc(O)c(C=O)c4)C3)C2)cc1` [Example 69, N-(2-(4-(2-(2-Aminopyridin-3-yl)-5-phenyl-3H-imidazo[4,5-b]pyridin-3-yl)benzyl)-2-azaspiro[3.3]heptan-6-yl)-3-formyl-4-hydroxybenzamide], the pIC50 was over 7.82.
`Nc1ncccc1-c1nc2ccc(C3=CCOCC3)nc2n1-c1ccc(CN2CCN(C(=O)c3ccc(O)c(C=O)c3)CC2)cc1` [Example 29, 5-(4-(4-(2-(2-Aminopyridin-3-yl)-5-(3,6-dihydro-2H-pyran-4-yl)-3H-imidazo[4,5-b]pyridin-3-yl)benzyl)piperazine-1-carbonyl)-2-hydroxybenzaldehyde] was tested, and the pIC50 was 6.22 to 7.22.
